Laboratory results as given in US7417072B2, “Blockade of Pin1 prevents cytokine production by activated immune cells” (Wisconsin Alumni Research Foundation, priority 2005, dated 2008).
Residues, ends and D or L forms follow the SMILES beside them. *: point of attachment. Cbz = O=C(OCc1ccccc1)*

Tests used:
p45 and p40 AUF1 = assay: Anti-phosphoserine immunoblot of eosinophil cytoplasmic extracts; type: cell-based, human; conditions: 50 μM added 30 min before harvest
Method: Cells were untreated (−/−/−), treated with HA alone (4 h), HA (4 h) plus juglone (1 μM added 10 min before harvest) or HA plus Erk inhibitor PD98059 (PD) (50 μM added 30 min before harvest). Cytoplasmic extracts were immunoblotted with anti-phosphoserine, anti-AUF1 or anti-Pin1 antibody as shown.
As the association of Pin1 and AUF1 was unaffected by HA (FIG. 2A) despite the loss of GM-CSF mRNA from the protein complex (FIGS. 4A & 4B) it was hypothesized that either AUF1 and/or Pin1 was modified by HA mediated signaling. Phorbol esters trigger the dephosphorylation of Ser^83 and Ser^87 of p40 AUF1 was concomitant with the stabilization of IL-1β and TNF-α mRNAs (Wilson et al. 2003, J. Biol. Chem. 278:33029-33038). Therefore, cytoplasmic extracts from control or HA-treated Eos were immunoblotted with anti-phosphoserine, anti-AUF1 or anti-Pin1 antibodies.

GM-CSF mRNA = GM-CSF mRNA levels in eosinophils, RT-PCR/Southern blot; type: cell-based, human
Method: In FIG. 2A, Eos were treated as in FIG. 1A for 4 h prior to lysis with TriReagent and RT-PCR/Southern blot analysis for GM-CSF mRNA. Gel electrophoresis of GM-CSF products and control β-actin RT-PCR products are shown. In FIG. 2B, cells were treated with HA for 4 h and then juglone (1 μM) was added at the indicated times before harvest and RT-PCR analysis, where GM-CSF or β-actin mRNA expression were analyzed as above. In FIG. 2B, “C,” refers to PCR reaction mixtures without added cDNA. In FIG. 2C, cells were untreated (−/− lanes on left) or incubated for 4 h with HA atone, HA plus varying concentrations (160 or 320 nM) of TAT-conjugated green fluorescent protein (TAT-GFP) or TAT-conjugated Pin1 domains (TAT-wwPin1) and analyzed as in FIG. 2A. […] In FIG. 2E, eosinophils were treated for 4 h with HA or HA plus juglone (1 μM, 1 h prior to harvest) prior to the addition of actinomycin D (5 μg/ml) and cells harvested at the indicated times for RT-PCR/Southern blot analysis. In these experiments, PCR was performed for 30 (HA-treated cells) or 33 (HA plus juglone-treated cells) cycles, respectively.
In FIG. 3A, Eos were untreated (−/−), treated with HA or HA plus juglone (1 μM) for 4 h. […] In FIG. 3C, cells were untreated (−/−/−) treated for 4 h with HA alone, HA plus juglone (10 min before harvest) or HA plus 20 μM or 100 μM MG132 (4 h) plus juglone (10 min before harvest), Cell lysates were immunoblotted with the antibodies shown. […] In FIG. 3D, Eos were treated as described for FIG. 3C except that only 20 μM MG132 was used. Cells were lysed with TriReagent for total RNA isolation prior to RT-PCR/Southern blot analysis.
To characterize the mechanisms connecting hyaluronic acid (HA) activation to GM-CSF expression and eosinophil survival, GM-CSF mRNA decay was measured.
In order to assess this possibility, GM-CSF mRNA levels were measured by RT/PCR-Southern blot hybridization experiments.

Pin1 and AUF1 = Pin1 and AUF1 protein levels in eosinophils, immunoprecipitation/immunoblot; type: cell-based, human; conditions: MG132 4 h, juglone 10 min before harvest
Method: In FIG. 3A, Eos were untreated (−/−), treated with HA or HA plus juglone (1 μM) for 4 h. Cell lysates were immunoprecipitated with anti-Pin1 antibody followed by immunoblotting with anti-AUF1 or anti-Pin1 antibodies. Nonimmune IgG was used as a negative control while HeLa cell extracts were used as a positive control (“C”). In FIG. 3B, immunoblots of cytoplasmic protein from Eos treated for 4 h with HA or co-treated with juglone (1 μM) for the indicated times before harvest. In FIG. 3C, cells were untreated (−/−/−) treated for 4 h with HA alone, HA plus juglone (10 min before harvest) or HA plus 20 μM or 100 μM MG132 (4 h) plus juglone (10 min before harvest), Cell lysates were immunoblotted with the antibodies shown. Lane “C” is a HeLa cell lysate used as a positive control. In FIG. 3D, Eos were treated as described for FIG. 3C except that only 20 μM MG132 was used.
The effects of HA and juglone treatment on the interactions between AUF1 and Pin1 were then examined.
To address this possibility, Eos were exposed to the proteasome inhibitor MG132 (4 h) (Sigma) and juglone (10 min before harvest) and lysates immunoblotted.

eosinophils (Eos) = assay: Eosinophil survival, cell viability at day 4; type: cell-based, human; conditions: for Eos survival: HA-activated Eos
Method: In FIG. 2C, cells were untreated (−/− lanes on left) or incubated for 4 h with HA atone, HA plus varying concentrations (160 or 320 nM) of TAT-conjugated green fluorescent protein (TAT-GFP) or TAT-conjugated Pin1 domains (TAT-wwPin1) and analyzed as in FIG. 2A. In FIG. 2D, control (−/−), HA (100 μg/ml), rhGM-CSF (100 pg/ml), HA or GM-CSF plus TAT-GFP (160 nM) or HA or GM-CSF plus TAT-wwPin1 (160 nM) treated Eos were cultured for 4 days prior to cell viability assay as disclosed in Example 2 below.
To this end, peripheral blood was obtained by venipuncture from patients who had allergic rhinitis or asthma; patients were not symptomatic at the time blood was obtained. Peripheral blood eosinophils (Eos) were purified using a negative immunomagnetic procedure as described in Esnault and Malter (2001, J. Immunol. 166:4658-96). After isolation, Eos were maintained in vitro in RPMI 1640 medium (Gibco Life Technologies, Grand Island, N.Y.) with 10% fetal calf serum (Gibco Life Technologies, Grand Island, N.Y.) and 50 μg/ml gentamicin (Gibco Life Technologies, Grand Island, N.Y.) at 37° C. in 5% CO2, and were metabolically labeled and activated by treatment under these culture conditions with 100 μg/ml HA (˜5 hours total, see below).
The mechanism of Eos death was evaluated by western blotting.

[1] = tested on: peripheral blood mononuclear cells (PBMC); assay: Cytokine mRNA accumulation in activated PBMC, northern blot / qPCR; type: cell-based, human; conditions: mitogen stimulated, 4 h, juglone 1 μM
Method: PBMCs were isolated from healthy donors by Percoll® gradient centrifugation of heparinized whole blood. Cells were cultured in RPMI 1640 media supplemented with 10% fetal calf serum (FCS) at 1×10^6 cells/ml prior to the addition of PMA (20 ng/ml) and PHA (5 ug/ml) (P/P) or PMA, PHA and juglone (1 uM) (P/P/J); “R” designates the control lane without addition of additional substances. After 4 h, cells were lysed and 10 ug of recovered RNA northern blotted and hybridized with probes shown along the left side of the Figure. “A” and “B” refer to results with 2 different donors.
After 4 h, RNA was isolated from the cells and used for quantitative PCR (qPCR) for the cytokine mRNAs shown. Data are presented as % inhibition in samples with juglone.
Thus peripheral blood mononuclear cells (˜70% T cells, 20% B cells, 5-10% macrophages/monocytes, obtained by phlebotomy of normal donors) were incubated with optimal concentrations of mitogens (phorbol ester (20 ng/ml), and PHA (40 ug/ml), both from Sigma) and cytokine in RNA levels were measured by northern blot or real time RT/PCR (qPCR) and cytokine secretion by ELISA. […] IL-2, IL-8, TNFα, IFNγ and GM-CSF mRNAs were evaluated first, since these cytokines all share 3′ UTR AU-rich elements with GM-CSF.

purified T cells = assay: Cytokine mRNA in purified T cells activated with anti-CD3/anti-CD28, qPCR; type: cell-based, human; conditions: anti-CD3/anti-CD28, juglone 1 μM added along with antibody, 4 hours
Method: Purified T cells were prepared by negative selection of PBMC (T cells>98% pure based on flow cytometry) and activated with a combination of anti-CD3 and anti-CD28 antibodies. Juglone was added at 0.1 or 1 μM as shown along with the antibodies or at various times (as shown) at 1 μM after the antibodies.
Purified T cells were prepared by negative selection of PBMC (T cells>98% pure based on flow cytometry) and activated with a combination of anti-CD3 and anti-CD28 antibodies. Juglone was added at 0.1 or 1 μM as shown along with the antibodies. After 4 hours total incubation time, cells were lysed and mRNA used for RT-qPCR for the cytokine mRNAs shown “−” refers to control cells activated but not exposed to juglone.
As PBMC are heterogeneous, this cell population was fractionated into T cells by negative selection (as described in Sedgwick et al., 2003, Am J Respir Cell Mol Biol. 29:702-9). […] These were then activated with anti-CD3 and anti-CD28 antibodies (obtained from Santa Cruz Biotech), and the effects of Pin1 blockade on cytokine gene expression assessed by qPCR. […] Juglone (1 μM) added along with antibody reduced GM-CSF mRNA by between 80-95%.

rat splenocytes [2] = assay: Splenocyte viability, propidium iodide flow cytometry; type: cell-based; conditions: 24 hours
Method: In FIG. 14A, mRNAs for IFN-γ, IL-2, TNF-α, CXCL-10 and TGF-β were analyzed in rat splenocytes by reverse transcription, qPCR. The ionomycin/PMA stimulated sample was normalized to 100 and others expressed as a % of that value. […] Cells were stained with propidium iodide and analyzed by flow cytometry. The results shown are representative of 3 experiments. […] The data are averages±SEM of 3 independent experiments using splenocytes of untreated healthy animals.
Therefore, Pin1 blockade suppressed proliferation as well as the elaboration of proinflammatory cytokines by activated rat splenocytes.

rat splenocytes [3] = assay: IFN-γ and IL-2 secretion by activated splenocytes, ELISA; type: cell-based; conditions: I/P stimulated spleen cells
[4] = tested on: cytokine expression and immune cells of transplant recipients; assay: Immunologic analysis of lung transplant recipients (blood, spleen, BAL, lung, mediastinal lymph nodes)
Method: Splenocytes (2000) from control or juglone-treated transplant recipients were activated with ionomycin (1 μM) and PMA (20 ng/ml) for 3 days prior to addition of anti-IL-2 or IFN gamma antibodies and color development and counting.
Spleens were processed 8 days after transplantation from untreated or juglone-treated rats for mRNA isolation and RT-qPCR for IL-2, IFN or TNF alpha. Juglone treated mRNA levels were set to 100% in these analyses.
Data are shown as the average±SEM (n=4 rats) of 3 experiments 7 days after transplantation.
The values in untreated controls were normalized to 100% and data shown represent % change in juglone treated samples. The data shown are an average±SEM (n=4 rats) of 4 experiments. * denotes p<0.05 from control samples. […] Values are normalized to control (100%).
Cytokine elaboration was measured by control, activated or juglone treated activated splenocytes as follows. IFNγ secretion by splenocytes was evaluated by ELISPOT (R&D Systems, Minneapolis, Minn.) as described by the manufacturer. Triplicates of serial dilutions of cells were cultured with PMA (10 ng/ml) plus iononycin (1 μM) for 48 hours. The concentration of IFN-γ and IL-2 in the BAL fluid was determined using an ELISA kit (R&D Systems).
Next, immunologic changes between control and juglone treated transplant recipients were analyzed. […] Splenocytes harvested from control versus untreated animals (8 days after transplant) were stimulated with optimal concentrations of PMA (20 ng/ml) and ionomycin (1 μM) and analyzed by Elispot for IL-2 and IFNγ expression.
Levels of IFN-γ and IL-2 were as measured, as described above, in the animals one week after transplantation.
Cytokine mRNAs from splenocytes in juglone treated animals were also examined.

Which “HA-increased phosphorylation of p45 and p40 AUF1” value (p45 and p40 AUF1) does the source give for `COc1cccc(-c2cc(=O)c3ccccc3o2)c1N` [PD98059] here?
Its value is “partially antagonized”.

What about the “GM-CSF mRNA levels in HA-treated Eos” value (GM-CSF mRNA; HA 4 h, CsA 1.6 μM or 16 μM, TAT proteins 160 or 320 nM) of the same molecule?
Its value is “failed to accumulate”.

And the “Time to effect on GM-CSF mRNA after addition of the inhibitor” value (GM-CSF mRNA; HA-activated Eos)?
Its value is 10 to 30 min.

With `CC(C)C[C@@H](C=O)NC(=O)[C@H](CC(C)C)NC(=O)[C@H](CC(C)C)NC(=O)OCc1ccccc1` [MG132] (Cbz-Leu-Leu-Leu-aldehyde) as the molecule, how does the “Juglone-induced Pin1 degradation” value (Pin1 and AUF1) read?
Its value is “only partially prevented Pin1 degradation”.

And the “Juglone-induced p45, p42 and p40 AUF1 degradation” value (Pin1 and AUF1)?
The value was “completely blocked”.

And the “GM-CSF mRNA in Eos treated with MG132 alone” value (GM-CSF mRNA)?
The value was “no observable effect”.

And the “GM-CSF mRNA in Eos treated with HA, MG132 and juglone” value (GM-CSF mRNA; 20 μM MG132 4 h, juglone 10 min before harvest)?
The value was “antagonized juglone-induced decreases of GM-CSF mRNA”.

How did the “Effect on HA-enhanced Eos survival” value (eosinophils (Eos); HA 100 μg/ml, TAT proteins 160 nM) turn out when `C=CC[C@@H]1/C=C(\C)C[C@H](C)C[C@H](OC)[C@H]2O[C@@](O)(C(=O)C(=O)N3CCCC[C@H]3C(=O)O[C@H](/C(C)=C/[C@@H]3CC[C@@H](O)[C@H](OC)C3)[C@H](C)[C@@H](O)CC1=O)[C@H](C)C[C@@H]2OC` [FK506] was run?
The value was “no effect”.

`O=C1C=CC(=O)c2c(O)cccc21` [juglone] was tested. Which “Suppression of cytokine mRNAs by qPCR” value [1] did it give?
Its value is 65-90%.

And the “Reduction of GM-CSF mRNA in purified T cells” value (purified T cells)?
The value was 80-95%.

What about the “Apoptosis in I/P versus I/P/juglone treated splenocytes” value (rat splenocytes [2]) of the same molecule?
Its value is “equivalent levels of apoptosis”.

What about the “Concentration of maximal effect on cytokine secretion” value (rat splenocytes [3]) of the same molecule?
The value was 1 µM.

What about the Eos survival (eosinophils (Eos); 0.1 μM) of the same molecule?
The Eos survival was 5%.

And the Eos survival (eosinophils (Eos); 1.0 μM)?
The Eos survival was 5%.

What about the “Reduction in number of splenocytes expressing IL-2 and IFNγ by Elispot” value ([4]; 8 days after transplant, PMA 20 ng/ml and ionomycin 1 μM) of the same molecule?
The value was 60-70%.

And the “Absolute counts and ratios of peripheral blood CD4+, CD8+ cells and γ/δ lymphocytes” value ([4]; after 1 week of juglone)?
The value was “largely unaffected”.

And the “Fewer total BAL cells than untreated controls” value ([4]; juglone 1 mg/kg)?
Its value is 50%.

What about the “IL-2 and IFN-gamma mRNA in lungs compared with no treatment controls” value ([4]; juglone 1 mg/kg) of the same molecule?
Its value is “about 35%”.
